{"source": "patent US12387622B2", "about": "“Systems and methods for modeling veins and associated blood vessel components” (The Texas A&M University System, priority 2019, dated 2025)", "key": {"[1]": {"test_system": "thrombi formation within venous valves 50A-50C", "assay": "Vein-on-a-chip: anticoagulant-treated blood perfused through TNF-α treated, HUVEC-lined venous valves; platelets and fibrin imaged", "type": "cell-based, human", "conditions": "for thrombi at cusps 52 and at the microfluidic channel 44B: DOAC dosage increased to 500 ng/ml; for thrombi at cusps 52 and at the microfluidic channel 44B / fibrin rich clots in cusps 52 / thrombi in the luminal portion of the microfluidic model 40: venous valve 50B treated with TNF-α", "procedure": "In this embodiment, to form microfluidic chip 40, microelectronic and semiconductor fabrication techniques were used to develop an SU-8 photoresist-based master mold. Particularly, computational fluid dynamics simulations were carried out to arrive at the open venous valve designs (e.g., venous valves 50A-50C) which contained recirculations as observed in venous valve cusps in vivo. The embodiments of the finalized venous valve designs shown in FIGS. 3-5 were developed using solid modeling computer-aided design (CAD) software (e.g., the SolidWorks™ software package published by Dassault Systemes) and a photomask of the finalized valve designs was used to fabricate the master mold using epoxy-based negative photoresist—SU-8 on a silicon wafer in this embodiment. In this embodiment for forming microchannels 44A-44C, once the master molds were fabricated, the wafers were treated with Silane, and Polydimethylsiloxane (PDMS) having an […] to crosslinker ratio of about 10:1 was poured into the master mold. In this embodiment, once the PDMS was set, the PDMS was striped and bonded to a PDMS coated glass slide to form microchannels 44A-44C, each microchannel 44A-44C having PDMS coated on each side thereof. Additionally, PDMS, being hydrophobic, was treated with plasma and then silanized with (3-aminopropyl) triethoxylsilane (APTES) to make the PDMS hydrophilic. In this embodiment, microchannels 44A-44C were then filled with type-I rat tail collagen of about 200 micrograms per milliliter (ug/ml) and fibronectin of about 50 ug/ml to form an extracellular matrix (ECM) configured to support endothelial cell growth on the walls of each microchannel 44A-44C.\n(§1) In this embodiment for forming microchannels 44A-44C, human umbilical vein endothelial cells (HUVECs) were cultured over a layer of the ECM coated on microchannels 44A-44C; however, in other embodiments, human or animal cell lines other than HUVECs may also be used in the formation of microchannels 44A-44C. In this embodiment, HUVECs, a human primary cell line derived from the human umbilical vein, were acquired and seeded on T75 flasks coated with type I rat tail collagen of about 5 micrograms (μg) per 5 cm^2, the HUVECs being seeded at about 50,000 cells per flask. In this embodiment, the endothelial growth media (EGM) (EGM-2 MV, promocell in this embodiment) disposed in the flasks were replaced every two days, and once the flasks were 80% confluent, the HUVECs were detached from the flasks and seeded on microchannels 44A-44C with about 20-30 microliters (μl) of cell suspension having cell density of about 1e7 cells per milliliter (ml). The cell suspension was passed through a cell strainer to remove debris and cell aggregates that were larger than about 40 μm in diameter. In this embodiment, microchannels 44A-44C were then first filled with cell suspension and kept upside down for about 20 minutes to seed the top face of microchannels 44A-44C, and then microchannels 44A-44C were again filled with cell suspension and kept upright for 20 minutes to seed the bottom faces of microchannels 44A-44C.\nTo induce activation, the vascular lumen coated to microchannels 44A-44C was treated with the tumor necrosis factor (TNF) TNF-α at about 0-200 nanograms per milliliter (ng/ml) in this embodiment. Particularly, the seeded microchannels 44A-44C were perfused with media at about 1 ul/min for about 24 hours. Confluent lumen was formed on the walls of microchannels 44A-44C at the end of 24 hours. Additionally, in this embodiment, different doses TNF-α, a cytokine, was introduced into the confluent lumen of the channels for about 18 hours to observe the dose dependent inflammation of the endothelial cells in the straight sections of microchannels 44A-44C and venous valve cusps of venous valves 50A-50C.\nIn this embodiment of the formation of microchannels 44A-44C, to evaluate role of hypoxia, microfluidic chip 40 was incubated at 3.9% oxygen. […]"}, "[2]": {"test_system": "human umbilical vein endothelial cells (HUVECs)", "assay": "Vein-on-a-chip: TNF-α stimulation of HUVEC lumen followed by blood perfusion at venous shear", "type": "cell-based", "procedure": "as §1, with “The cell suspension was passed through a cell strainer to remove debris and cell aggregates that were larger than about 40 μm in diameter. In this embodiment, microchannels 44A-44C were then first filled with cell suspension and kept upside down for about 20 minutes to seed the top face of microchannels 44A-44C, and then microchannels 44A-44C were again filled with cell suspension and kept upright for 20 minutes to seed the bottom faces of microchannels 44A-44C.” left out\nIn this embodiment of the formation of microchannels 44A-44C, to evaluate role of hypoxia, microfluidic chip 40 was incubated at 3.9% oxygen. […] Fluorescently labelled platelets and fibrin were visualized and quantitated via microscopes positioned adjacent microchannels 44A-44C. Additionally, in this embodiment, typical vascular identity and adhesion markers were measured through immunohistochemistry. […]"}, "[3]": {"conditions": "standard dosage 50 ng/ml of Apixaban in blood"}, "[4]": {"conditions": "standard dosage 100 ng/ml of Rivaroxaban in blood"}}}
{"molecule": "COc1ccc(-n2nc(C(N)=O)c3c2C(=O)N(c2ccc(N4CCCCC4=O)cc2)CC3)cc1", "note": "[Apixaban]", "values": [{"measurement": "thrombi at cusps 52 and at the microfluidic channel 44B", "setting": "[1]", "value": "thrombi detected"}, {"measurement": "fibrin rich clots in cusps 52", "setting": "[1]; [3]", "value": "fibrin rich clots were present"}, {"measurement": "thrombi in the luminal portion of the microfluidic model 40", "setting": "[1]; [3]", "value": "unobservable thrombi"}]}
{"molecule": "O=C(NC[C@H]1CN(c2ccc(N3CCOCC3=O)cc2)C(=O)O1)c1ccc(Cl)s1", "note": "[Rivaroxaban]", "values": [{"measurement": "thrombi at cusps 52 and at the microfluidic channel 44B", "setting": "[1]", "value": "thrombi detected"}, {"measurement": "fibrin rich clots in cusps 52", "setting": "[1]; [4]", "value": "fibrin rich clots were present"}, {"measurement": "thrombi in the luminal portion of the microfluidic model 40", "setting": "[1]; [4]", "value": "unobservable thrombi"}]}
{"molecule": "Heparin", "values": [{"measurement": "thrombi formation within venous valves 50A-50C", "setting": "[1]; addition of heparin in blood, dose dependent", "value": "decreased the thrombi formation"}, {"measurement": "fibrin in cusps 52", "setting": "[1]; higher Heparin dosage 0.50 IU/ml, TNF-α 5 ng/ml", "value": "only reduced at the higher Heparin dosage"}, {"measurement": "fibrin within microfluidic model 40", "setting": "[1]; lower dose of Heparin (approximately 0.25 IU/ml), TNF-α 5 ng/ml", "value": "reduction in fibrin resulted"}, {"measurement": "thrombi formed in microfluidic channels 44A-44C", "setting": "[1]; when the dosage of Heparin was increased (0.25 to 0.50 IU/ml), valve 50B treated with TNF-α 5 ng/ml, FIG. 38", "value": "reduced significantly"}]}
{"molecule": "TNF-α", "values": [{"measurement": "thrombi in venous valves upon stimulation of HUVECs", "setting": "[2]; blood perfused at venous shear of about 0.5 dynes/cm^2, no thrombi with untreated HUVECs", "value": "thrombi were detected"}, {"measurement": "clot formation in lumen treated with varying doses of cytokine", "setting": "[2]; blood perfused at venous shear rates", "value": "fibrin rich clots were predominantly formed in the venous valve cusps"}]}
